Patent US4379150A, “Dibenz[b,f][1,4]oxazepine derivatives, process for preparing the same, and pharmaceutical compositions comprising the same” (Chugai Seiyaku Kabushiki Kaisha, priority 1980, dated 1983)
Where a name gives a salt, the structure may show the parent alone.

Tested on: isolated, donor-perfused rat hearts
Assay: inhibition of coronary vasoconstriction induced by acetylcholine 0.3 μg in isolated, donor-perfused rat hearts
Conditions: administered in the artery; for inhibition at 0.03 mg: 30 μg
Method: The effect of the compounds of the present invention to inhibit coronary vasoconstriction was studied. That vasoconstriction was induced by acetylcholine 0.3 μg in isolated, donor-perfused rat hearts (K. Sakai, Brit. J. Pharmacol., 68, 625-638, 1980), and determined by measuring the arterial perfusion pressure with a pressure transducer (Nihon Kohden MPU--0.5). The compounds of the present invention were administered in the artery in an amount between 30 and 60 μg.

SMILES | inhibition at 0.03 mg [%] | inhibition at 0.06 mg (60 μg) [%]
CCOC(=O)c1ccc2c(c1)N(CCN(C)C)C(=O)c1cc(C(C)C)cc(C(C)C)c1O2 [Comp. of Ex. 1, 2,4-diisopropyl-10[2-(dimethylamino)ethyl]-8-ethoxycarbonyl-dibenz[b,f][1,4] oxazepine-11(10H)-one] | ≥ 41 | 
CC(C)c1cc2c(c(C(C)C)c1)Oc1ccccc1N(CCN(C)C)C2=O [Comp. of Ex. 2] | 31 to 40 | 
CC(C)c1cc2c(c(C(C)C)c1)Oc1ccccc1N(CCCN(C)C)C2=O [Comp. of Ex. 3] | ≥ 41 | 
COc1ccc2c(c1)N(CCN(C)C)C(=O)c1cc(C(C)C)cc(C(C)C)c1O2 [Comp. of Ex. 4] |  | 20 to 30
COc1ccc2c(c1)N(CCCN(C)C)C(=O)c1cc(C(C)C)cc(C(C)C)c1O2 [Comp. of Ex. 5] | 20 to 30 | 
CCOC(=O)c1ccc2c(c1)N(CCN(C)C)C(=O)c1cc(C(C)(C)CC)ccc1O2 [Comp. of Ex. 8] | 31 to 40 | 
CCOC(=O)c1ccc2c(c1)N(CCCN(C)C)C(=O)c1cc(C(C)(C)CC)ccc1O2 [Comp. of Ex. 9] | ≥ 41 | 
CCC(C)(C)c1ccc2c(c1)C(=O)N(CCCN(C)C)c1ccccc1O2 [Comp. of Ex. 10] | 20 to 30 | 
CCOC(=O)c1ccc2c(c1)N(CCCN(C)C)C(=O)c1cc(C(C)C)cc(C(C)C)c1O2 [Comp. of Ex. 14] | 31 to 40 | 
CC(C)c1cc2c(c(C(C)C)c1)Oc1ccc(C(=O)O)cc1N(CCN(C)C)C2=O [Comp. of Ex. 15, 2,4-diisopropyl-10-[2-(dimethylamino)ethyl]-8-carboxy-dibenz[b,f][1,4]-oxazepine-11(10H)-one hydrochloride] | 20 to 30 | 
CC(C)c1cc2c(c(C(C)C)c1)Oc1ccc(C(N)=O)cc1N(CCN(C)C)C2=O [Comp. of Ex. 17, 2,4-diisopropyl-10-[2-(dimethylamino)ethyl]-8-carbamoyl-dibenz[b,f][1,4]oxazepine-11(10H)-one] | 20 to 30 | 
